Experiments:
Assay type in all cases: in vivo
CHENOPODIUM ALBUM, L. [1] = assay: Postemergence herbicidal evaluation, CHEAL (Lambsquarters, Common); conditions: rated four to five weeks after treatment, averaged
In short: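 Postemergence herbicidal activity on Chenopodium album was tested by spraying two-week-old seedlings grown in jiffy flats with compound in acetone/water (50/50) plus 0.5% TWEEN®20, using a 40 psi nozzle. Four to five weeks after treatment, stand, vigor, malformation, size, chlorosis and overall appearance were scored 0-9 relative to controls, with repeat tests averaged.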

[2] = tested on: ABUTILON THEOPHRASTI, MEDIC.; assay: Preemergence herbicidal evaluation, ABUTH (Velvetleaf); conditions: four to five weeks after treatment
In short: (§1)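 Rated 0-9 by visual comparison with control (stand, vigor, malformation, size, chlorosis, overall appearance) four to five weeks after preemergence soil spray. Dose equivalent to about 0.125 to 0.50 kg per hectare, applied in aqueous acetone to freshly seeded cups kept in greenhouse.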

[3] = tested on: AMBROSIA ARTEMISIIFOLIA, L.; assay: Preemergence herbicidal evaluation, AMBEL (Ragweed, Common); conditions: four to five weeks after treatment
In short: as §1

CHENOPODIUM ALBUM, L. [4] = assay: Preemergence herbicidal evaluation, CHEAL (Lambsquarters, Common); conditions: four to five weeks after treatment
In short: as §1

IPOMOEA SPP. = assay: Preemergence herbicidal evaluation, IPOSS (Morningglory spp.); conditions: four to five weeks after treatment
In short: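 This preemergence greenhouse test scored herbicidal effect on morningglory planted in pint cups, with seed mixed into potting soil and placed over about one inch of soil. After treatment the cups were watered and kept under conventional care. At four to five weeks, plant stand, vigor, malformation, size, chlorosis and overall appearance were compared with a control and rated 0-9.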

[5] = tested on: ECHINOCHLOA CRUS-GALLI, (L) BEAU; assay: Preemergence herbicidal evaluation, ECHCG (Barnyardgrass); conditions: four to five weeks after treatment
In short: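 In this preemergence herbicide test, cups holding seeds of ECHCG sown in potting soil over roughly one inch of soil were treated and then grown under conventional greenhouse care. Tests were ended four to five weeks after treatment, and injury was scored 0-9 from stand, vigor, malformation, size, chlorosis and overall appearance relative to a control.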

[6] = tested on: SETARIA VIRIDIS, (L) BEAU; assay: Preemergence herbicidal evaluation, SETVI (Foxtail, Green); conditions: four to five weeks after treatment
Description: Results of herbicide evaluation are expressed on a rating scale (0-9). The scale is based upon a visual observation of plant stand, vigor, malformation, size, chlorosis and overall plant appearance as compared with a control.
The preemergence herbicidal activity of the test compounds of the present invention is exemplified by the following tests in which the seeds of a variety of monocotyledonous and dicotyledonous plants are separately mixed with potting soil and planted on top of approximately one inch of soil in separate pint cups. […] The treated cups are then placed on greenhouse benches, watered and cared for in accordance with conventional greenhouse procedures. From four to five weeks after treatment, the tests are terminated and each cup is examined and rated according to the rating system provided in Example 40.
The compounds evaluated are reported by compound number given in Example 40.

[7] = tested on: GLYCINE MAX(L) MERR. CV. WILLIAMS; assay: Preemergence herbicidal evaluation, GLXMAW (Soybean, Williams); conditions: four to five weeks after treatment
In short: as §1

[8] = tested on: ORYZA SATIVA, L. TEBONNET; assay: Preemergence herbicidal evaluation, ORYSAT (Rice, Tebonnet); conditions: four to five weeks after treatment
In short: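 Preemergence herbicidal activity on Tebonnet rice was assessed using pint cups of seeded potting soil kept under conventional greenhouse care after treatment. Tests ended four to five weeks later. Each cup received a 0-9 rating from visual comparison with a control covering stand, vigor, malformation, size, chlorosis and overall appearance.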

[9] = tested on: TRITICUM AESTIVUM, CV. APOLLO; assay: Preemergence herbicidal evaluation, TRZAWO (Wheat, Winter, CV. APOLLO); conditions: four to five weeks after treatment
In short: as §1

ZEA MAYS L. = assay: Preemergence herbicidal evaluation, ZEAMX (Corn, Field); conditions: four to five weeks after treatment
In short: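 Preemergence herbicidal activity on field corn: seeds in potting soil were sown atop roughly one inch of soil in separate pint cups, treated, and grown under standard greenhouse care. Four to five weeks post-treatment, stand, vigor, malformation, size, chlorosis and overall appearance were compared with a control and scored 0-9.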

SAGITTARIA PYGMAEA, L. = assay: Preemergence weed control under flooded paddy conditions, SAGPY (Arrowhead (Pygmaea)); conditions: preemergence weeds, rated three to four weeks after treatment
In short: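 Visual 0-9 rating against untreated control, covering stand, vigor, malformation, size and chlorosis, scored three to four weeks post-treatment in a greenhouse. Application was into 1.5-3 cm flood water over silt loam sown at 0.5 cm. The 50/50 v/v aqueous/acetone doses were about 0.5, 0.25, 0.125 and 0.063 kg/ha.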

[10] = tested on: ORYZA SATIVA, L. TEBONNET; assay: Rice tolerance to post-transplant applications under flooded paddy conditions, ORYSAT (Rice, Tebonnet); conditions: post-transplant rice, rated three to four weeks after treatment;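 note: applied to flooded soil surface three days after transplanting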
In short: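 Rated on a visual 0–9 scale against untreated plants 3–4 weeks after application, rice (cv. Tebonnet) tolerance was tested by applying compounds (approx. 0.5–0.063 kg/ha, acetone/water 50/50) to flooded soil three days post-transplant, water kept 1.5–3 cm deep.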

CCOC(=O)Cn1c(=O)n(CC(=O)OC)c(=O)n(-c2cc(Oc3c(F)cc(C(F)(F)F)cc3Cl)ccc2C#N)c1=O [Compound 12, 1-Ethyl methyl 5-{5-[(2-chloro-α,α,α,6-tetrafluoro-p-tolyl)oxy]-2-cyanophenyl}-dihydro-2,4,6-trioxo-s-triazine-1,3(2H,4H)-diacetate]
CHEAL, herbicide rating (0-9) (CHENOPODIUM ALBUM, L. [1]; Rate 0.125 kg/ha): 9.0 | CHEAL, herbicide rating (0-9) (CHENOPODIUM ALBUM, L. [1]; Rate 0.250 kg/ha): 9.0 | CHEAL, herbicide rating (0-9) (CHENOPODIUM ALBUM, L. [1]; Rate 0.500 kg/ha): 9.0 | ABUTH rating ([2]; Rate 0.125 kg/ha): 0.0 | ABUTH rating ([2]; Rate 0.250 kg/ha): 0.0 | ABUTH rating ([2]; Rate 0.500 kg/ha): 0.0 | AMBEL rating ([3]; Rate 0.125 kg/ha): 0.0 | AMBEL rating ([3]; Rate 0.250 kg/ha): 0.0 | AMBEL rating ([3]; Rate 0.500 kg/ha): 0.0 | CHEAL rating (CHENOPODIUM ALBUM, L. [4]; Rate 0.125 kg/ha): 0.0 | CHEAL rating (CHENOPODIUM ALBUM, L. [4]; Rate 0.250 kg/ha): 0.0 | CHEAL rating (CHENOPODIUM ALBUM, L. [4]; Rate 0.500 kg/ha): 0.0 | IPOSS rating (IPOMOEA SPP.; Rate 0.125 kg/ha): 0.0 | IPOSS rating (IPOMOEA SPP.; Rate 0.250 kg/ha): 0.0 | IPOSS rating (IPOMOEA SPP.; Rate 0.500 kg/ha): 0.0 | ECHCG rating ([5]; Rate 0.125 kg/ha): 0.0 | ECHCG rating ([5]; Rate 0.250 kg/ha): 0.0 | ECHCG rating ([5]; Rate 0.500 kg/ha): 0.0 | SETVI rating ([6]; Rate 0.125 kg/ha): 0.0 | SETVI rating ([6]; Rate 0.250 kg/ha): 0.0 | SETVI rating ([6]; Rate 0.500 kg/ha): 0.0 | GLXMAW rating ([7]; Rate 0.125 kg/ha): 0.0 | GLXMAW rating ([7]; Rate 0.250 kg/ha): 0.0 | GLXMAW rating ([7]; Rate 0.500 kg/ha): 0.0 | ORYSAT rating ([8]; Rate 0.125 kg/ha): 0.0 | ORYSAT rating ([8]; Rate 0.250 kg/ha): 0.0 | ORYSAT rating ([8]; Rate 0.500 kg/ha): 0.0 | TRZAWO rating ([9]; Rate 0.125 kg/ha): 0.0 | TRZAWO rating ([9]; Rate 0.250 kg/ha): 0.0 | TRZAWO rating ([9]; Rate 0.500 kg/ha): 0.0 | ZEAMX rating (ZEA MAYS L.; Rate 0.125 kg/ha): 0.0 | ZEAMX rating (ZEA MAYS L.; Rate 0.250 kg/ha): 0.0 | ZEAMX rating (ZEA MAYS L.; Rate 0.500 kg/ha): 0.0 | SAGPY herbicidal rating (SAGITTARIA PYGMAEA, L.; Rate 0.063 kg/ha): 0.0 | SAGPY herbicidal rating (SAGITTARIA PYGMAEA, L.; Rate 0.125 kg/ha): 0.0 | SAGPY herbicidal rating (SAGITTARIA PYGMAEA, L.; Rate 0.250 kg/ha): 0.0 | SAGPY herbicidal rating (SAGITTARIA PYGMAEA, L.; Rate 0.500 kg/ha): 0.0 | ORYSAT herbicidal rating (rice tolerance) ([10]; Rate 0.063 kg/ha): 0.0 | ORYSAT herbicidal rating (rice tolerance) ([10]; Rate 0.125 kg/ha): 0.0 | ORYSAT herbicidal rating (rice tolerance) ([10]; Rate 0.250 kg/ha): 0.0 | ORYSAT herbicidal rating (rice tolerance) ([10]; Rate 0.500 kg/ha): 1.0

— patent EP0745595A1, “3-(3-Aryloxyphenyl)-1-(substituted methyl)-s-triazine-2,4,6-oxo or thiotrione herbicidal agents” (American Cyanamid Company, priority 1995, dated 1996)
